According to patent US20120010557A1, “Drug Delivery System for Use in the Treatment of Vascular and Vessel-Related Pathologies” (priority 2009, published 2012):

Legend:
[1] = not told; cited from earlier work
[2] = tested on: laser-induced thrombus in hamster dorsal skin fold venules; experiment: Laser-induced thrombosis in hamster dorsal skin fold venules, intravital fluorescence microscopy; format: in vivo; settings: infused
From the text: In the research that led to the invention it was shown that, in PWS vascular analogues (hamster dorsal skin fold venules), the photothermal response is ensued by a hemodynamic response, namely the initiation of primary and secondary hemostasis following laser-induced endovascular damage. There is increasing evidence that misfolded proteins and corollary fibrillar structures referred to as amyloid have the propensity to activate platelets (Herczenik E et al. Arterioscler Thromb Vasc Biol. 2007 July; 27(7):1657-65) and the contact activation pathway (Maas C et al. J Clin Invest. 2008 September; 118(9):3208-18). Inasmuch as thermal coagula are comprised of thermally denatured (i.e., misfolded) proteins, these laser-induced lesions may constitute the basis for the initiation of primary and secondary hemostasis in addition to a thermally afflicted endothelium. […]
FIG. 1: Aggregation of 5,6-carboxyfluorescein (CF)-labeled platelets at the site of laser-induced damage in hamster dorsal skin fold venules as visualized by intravital fluorescence microscopy without (A-F) and with (G-L) priorly infused heparin (Hep). […]

CC=CC=CC(=O)OCCCCCCCCCC(=O)OC[C@H](COP(=O)([O-])OCC[N+](C)(C)C)OC(=O)CCCCCCCCCOC(=O)C=CC=CC [bis-SorbPC, 1,2-bis[10-(2′,4′-hexadienoloxy)decanonyl]-sn-glycero-3-phosphocholine]
Increase in bilayer permeability [1]: up to 28.000 fold

heparin
Effect on laser-induced thrombus formation / lesional size [2]: impeding effect on the lesional size
